For the experiment, the system named is isolated rat soleus muscle. Briefly: insulin-stimulated incorporation of labelled glucose into glycogen in isolated rat soleus muscle (soleus muscle assay). Format: cell-based. An excerpt: According to the present invention, we have developed methods for the efficient synthesis of amylin and amylin analogs which result in peptides of high purity which are substantially free of deletion peptides and other contaminating peptides and which show reproducibly high biological activity as measured by assays of its ability to cause resistance to insulin in vitro by inhibiting insulin-stimulated incorporation of labelled glucose into glycogen in isolated rat soleus muscle.
The present invention also provides synthetic human amylin produced by solid phase peptide synthesis which has an EC50 of about 2.5 nanomoles/liter±0.3 log units or less according to an assay of insulin-stimulated incorporation of labelled glucose into glycogen in isolated rat soleus muscle. In an especially preferred aspect, such synthetic human amylin is substantially free of deletion and other contaminating peptides. […]

pEC50: −log10 of the molar value. Like-named read-outs stand apart in the source and are kept apart here. Ends that are not written are not given here. Where only a bound is given, the exact number is not on record here.

Turning to “Human Amylin (KCNTATCATQRLANFLVHSSNNFGAILSSTNVGSNTY-NH2; cysteine pairing not given here; UniProt P10997 34-70, looked up) [37-amino acid peptide with internal disulfide bond and C-terminal amide, made by solid phase peptide synthesis]”, the pEC50 was over 8.30 (peptide at least about 95% pure after preparative RP-HPLC, read-out: EC50 as measured by soleus muscle assay) and at least 8.60 (±0.3 log units, inhibition of insulin-stimulated glycogen synthesis, read-out: EC50 according to an assay of insulin-stimulated incorporation of labelled glucose into glycogen in isolated rat soleus muscle).
